Values quoted from earlier work in patent publication US11351151B2, “Compound having anticancer activity and preparation method and application” (3D Medicines (Beijing) Co., Ltd., priority 2016, dated 2022).

Details: liver cancer patients, phase III; cited from earlier work

SMILES: CNC(=O)c1cc(Oc2ccc(NC(=O)Nc3ccc(Cl)c(C(F)(F)F)c3)cc2)ccn1 [Sorafenib]
- ORR (overall response rate): 6.9%
- TTP (time to progression): 4.0 months
